This is an account of results in PubChem BioAssay (NCI).

What all share (experiment): NCI anticancer screen, dose series, 48 h
The test system of experiment [1] is ACHN renal.
Experiment [2] concerns HOP-62 NSCLC.
Experiment [3] has as its system HT29 colon.
The subject of experiment [4] is NCI-H23 lung.
The test system of experiment [5] is OVCAR-8 ovarian.
In experiment [6] the test system is RPMI-8226 leukemia.
For experiment [7], the system named is SK-MEL-5 melanoma.
For experiment [8], the system named is U251 CNS.
Experiment [9] relates to K-562 leukemia.
The test system of experiment [10] is UACC-62 melanoma.

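Exposure lasted 48 hours, with cells grown in 96-well plates and compounds tested at five concentrations. GI50 = concentration required for 50% inhibition of growth. TGI: total growth inhibition.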 Bounds are passed on as bounds.

Regarding `c1ccc2[nH]c(-c3ccc(Nc4nc(N5CCCCC5)nc(N5CCOCC5)n4)cc3)nc2c1`, the GI50 was 3.14 µM in [1]; 1.92 µM in experiment [2]; 2.44 µM in [3]; 3.05 µM in experiment [4]; 3.24 µM in experiment [5]; 2.23 µM in experiment [6]. The GI50 in [7] was 1.78 µM; in experiment [8], 2.18 µM. Moreover, the TGI was over 100 µM in [1]; 4.32 µM in [2]; 5.56 µM in experiment [3]; 15.7 µM in experiment [4]; 14.3 µM in experiment [5]; 6.58 µM in experiment [6]. Moreover, the TGI in experiment [7] amounted to 3.3 µM; in [8] it was 10 µM.

Regarding `CC(C)(Oc1ccc(/C=C/C(=O)c2ccc(Cl)cc2)cc1)C(=O)Nc1c(Cl)cccc1Cl`, the TGI is 53 µM in experiment [1]; over 100 µM in experiment [2]; 28 µM in experiment [3]; over 100 µM in experiment [9]; 40.9 µM in [4]; 30.5 µM in [5]. Also, the TGI turned out to be 37 µM in [7], 26.7 µM in [8] and 38 µM in experiment [10].

As to `COc1ccc2[nH]c3c(c2c1)[C@H](C)C[C@@H]1C(=O)N(c2ccccc2)C(=O)[C@H]31`, the TGI is over 100 µM in experiment [1]; 52.5 µM in experiment [2]; over 100 µM in [9]; 66.8 µM in [4]; 37.8 µM in experiment [5]; over 100 µM in experiment [7]. The TGI is 32.4 µM in experiment [8] and over 100 µM in [10].

Consider `CN(C)C(=S)/N=c1\ssc(=S)n1Cc1ccncc1`, for which the TGI in experiment [1] was 93.1 µM; in experiment [2], 92.2 µM; in experiment [9], over 100 µM; in experiment [4], 60.7 µM; in experiment [5], 68.9 µM; in experiment [7], 17.4 µM. Further, the TGI in [8] came out at 39 µM; in experiment [10] it was 25.5 µM.

On to `CCCCn1c(-c2ccc(C(=O)O/N=C(\N)c3ccc4c(c3)OCO4)cc2)nc(-c2ccccc2)c1-c1ccccc1`, for which the GI50 in experiment [1] was 1.35 µM; in experiment [2] it was 1.82 µM; in [3] it was 3.33 µM; in experiment [4], 2.23 µM; in experiment [5], 3.37 µM; in experiment [7] it was 1.98 µM. The GI50 in [8] is 2 µM; in experiment [10], 2.72 µM. In addition, the TGI is 2.81 µM in experiment [1]; 4.03 µM in [2]; over 100 µM in experiment [3]; over 100 µM in [4]; over 100 µM in experiment [5]; 4.54 µM in experiment [7]. In addition, the TGI in experiment [8] came out at 5.24 µM; in [10], 8.93 µM.

For the compound `Cc1ccccc1NC(=O)C1C(=O)N(c2ccccc2C)C(=O)/C1=N\NC(N)=S` (stereo unspecified), the TGI in [1], in [3], in experiment [9], in [4], in [6] and in experiment [8] was over 100 µM in each case. In [10], this compound registered a TGI of over 100 µM.

In the case of `C(=N\Nc1nnn(Cc2ccccc2)n1)/c1ccccc1`, the GI50 in [1] is 16.1 µM; in [2] it was 4.77 µM; in experiment [3], 1.26 µM; in [9] it was 0.43 µM; in [4], 6.97 µM; in [5] it was 6.72 µM. Further, the results for the GI50 in experiment [7], in [8] and in experiment [10] were 2.02 µM, 3.47 µM and 2.2 µM, respectively. Further, the TGI in experiment [1] was over 100 µM; in experiment [2], over 52.4 µM; in experiment [3], over 100 µM; in [9], over 100 µM; in experiment [4], over 53.8 µM; in experiment [5], over 100 µM. Also, the TGI in [7] is over 40.7 µM; in [8] it was 24.9 µM; in [10] it was over 100 µM.

Consider `COc1ccc(C(=O)c2ccc([As]=O)cc2)cc1` (stereo unspecified), for which the GI50 was 0.0333 µM in experiment [1]; 0.0412 µM in experiment [2]; 0.0489 µM in experiment [3]; 0.108 µM in experiment [4]; 0.0617 µM in experiment [5]; 0.0224 µM in experiment [6]. Further, the GI50 in experiment [7] was 0.14 µM; in experiment [8], 0.0218 µM. The TGI in experiment [1] stood at 0.119 µM; in experiment [2] it was 0.183 µM; in experiment [3] it was 0.236 µM; in experiment [4], 0.322 µM; in experiment [5] it was 0.203 µM; in experiment [6] it was 0.0643 µM. Moreover, the TGI in experiment [7] is 0.288 µM; in [8], 0.0615 µM.

As to `CSc1nnc(COc2ccc(Cl)cc2)o1`, the TGI in experiment [1], in experiment [2], in experiment [3], in experiment [4], in [5] and in experiment [7] was over 100 µM in each case. Further, the TGI in experiment [8] and in [10] was over 100 µM throughout.

With `CCCCN(CCCC)C(=O)/C(CC(=O)c1cccc2ccccc12)=N\NC(=O)c1cc2ccccc2cc1O`, the TGI in experiment [1] is 78.7 µM; in [2], 39.9 µM; in experiment [3], 57.7 µM; in experiment [4], 45.6 µM; in experiment [5], over 100 µM; in [6], 21.5 µM. In addition, the TGI is 32 µM in experiment [7], 72.3 µM in [8] and 23.3 µM in experiment [10].

With `C=C1C(=O)O[C@H]2[C@H]1CC/C(COC(=O)NCC(C)c1ccc(CC(C)C)cc1)=C\CC[C@@]1(C)O[C@@H]21` (stereo partly specified), the GI50 was 0.623 µM in experiment [1]; 5.29 µM in [2]; 1.03 µM in experiment [3]; 3.69 µM in [4]; 1.94 µM in experiment [5]; 0.681 µM in [6]. The GI50 is 3.97 µM in [7], 4.32 µM in [8] and 0.751 µM in [10]. Further, the TGI stood at 1.32 µM in [1]; 10.5 µM in experiment [2]; 2.52 µM in experiment [3]; 8.69 µM in [4]; 6.87 µM in experiment [5]; 1.9 µM in experiment [6]. Moreover, the figures for the TGI in experiment [7], in [8] and in experiment [10] were 8.07 µM, 8.7 µM and 2.35 µM, respectively.

On to `CC(=O)/C(=C/c1ccccc1F)C(=O)c1ccccc1`, for which the TGI in experiment [1] was over 100 µM; in experiment [2], over 100 µM; in [3], over 100 µM; in experiment [4], over 100 µM; in experiment [5] it was 51 µM; in [6] it was 44.4 µM. The TGI in experiment [7], in experiment [8] and in experiment [10] was over 100 µM each time.

`O=C(N/N=C/c1cccc(F)c1)c1ccncc1`: the TGI in experiment [1], in experiment [2], in [3], in experiment [4], in [6] and in [7] was over 100 µM each time. The compound also gave a TGI in experiment [8] of over 100 µM.

As to `C/C(=N/NC(=O)C[N+](C)(C)C)C(CN(C)C)C(=O)Nc1ccccc1` (stereo unspecified), the TGI in experiment [1], in experiment [2], in [3], in experiment [9], in experiment [4] and in [5] was over 100 µM each time. Moreover, the TGI in [7], in experiment [8] and in experiment [10] was over 100 µM each time.

As to `COC(=O)C(/C(=N\O)C(=O)Nc1cccc(Cl)c1C)c1cnc2ccccc2n1` (stereo unspecified), the TGI in [1], in [2], in [3], in experiment [9], in experiment [4] and in experiment [5] was over 100 µM throughout. Moreover, the TGI in experiment [7], in experiment [8] and in experiment [10] was over 100 µM in each case.

Regarding `CCCCCCCCCCCCCCCC[N+]1(C)CCOCC1`, the GI50 is 2.93 µM in [1]; 1.34 µM in experiment [2]; 0.766 µM in [3]; 2.2 µM in experiment [4]; 2.53 µM in [5]; 1.3 µM in [6]. Also, the GI50 in [8] is 1.06 µM; in [10], 1.61 µM. For the same compound, the TGI is 13.9 µM in experiment [1]; 3.15 µM in [2]; 3 µM in experiment [3]; 12.2 µM in experiment [4]; 8.84 µM in [5]; 4.06 µM in [6]. The TGI in [8] turned out to be 2.34 µM; in [10], 3.83 µM.

On to `N/N=C1\C(=O)N(CCc2ccccc2)C(=O)C1C(=O)NCCc1ccccc1` (stereo unspecified), for which the TGI in [1], in [3], in experiment [9], in [4], in [6] and in [8] was over 100 µM in each case. This compound also gave a TGI in experiment [10] of over 100 µM.

On to `C/C(=N\NC(=O)CC#N)c1c(O)cc(C)oc1=O`, for which the TGI in [1], in experiment [2], in experiment [3], in [9], in [4] and in experiment [5] was over 100 µM in each case. Besides, the TGI in [7], in experiment [8] and in experiment [10] was over 100 µM each time.

On to `CCOC(=O)C1SC(=Nc2ccc(Cl)cc2)N=C1C` (stereo unspecified), for which the TGI in experiment [1] came to 49.7 µM; in experiment [2] it was 36.2 µM; in [3] it was 30.8 µM; in [9] it was 43.3 µM; in experiment [4], 34.9 µM; in experiment [5], 43.3 µM. In addition, the TGI in experiment [6] turned out to be 82.3 µM; in [8], 35.2 µM.

Take `O=C(/C=C/c1ccccc1)c1ccc(NCc2nc3ccccc3[nH]2)cc1`: the TGI is 20.4 µM in [1]; 23.3 µM in experiment [2]; 7.73 µM in experiment [3]; over 26.1 µM in [9]; 11 µM in experiment [4]; 14.9 µM in [5]. Further, the values for the TGI in experiment [7], in [8] and in experiment [10] were 14.2 µM, 5.17 µM and 21.4 µM, respectively.

In the case of `CC(C)(C)OC(=O)NCCCCCCCn1c2c(c3ccccc3c1=O)C(=O)c1ccccc1-2`, the GI50 in experiment [1] was 27.1 µM; in [3] it was 37.6 µM; in [9] it was 42.7 µM; in [4], 26 µM; in experiment [5], 21.5 µM; in [7], 9.84 µM. Also, the results for the GI50 in [8] and in [10] were 28.9 µM and 20 µM, respectively. Also, the TGI was 90.4 µM in experiment [1]; over 100 µM in experiment [3]; over 100 µM in experiment [9]; over 100 µM in [4]; over 100 µM in experiment [5]; 27.6 µM in experiment [7]. Further, the values for the TGI in [8] and in experiment [10] were 89.5 µM and 72.8 µM, respectively.

For the compound `Cc1c(C(=O)O)oc2ccc([N+](=O)[O-])cc12`, the TGI in experiment [1], in experiment [2], in experiment [3], in experiment [9], in [4] and in [5] was over 100 µM throughout. Further, the TGI in experiment [7], in experiment [8] and in [10] was over 100 µM throughout.

In the case of `COc1ccc(/C(=N\NC(=S)NN)C(c2ccc(OC)cc2)C2C(=O)Oc3ccccc32)cc1` (stereo unspecified), the GI50 in [1], in experiment [3], in experiment [9], in experiment [4], in [5] and in experiment [6] was over 100 µM in each case. Also, the GI50 in experiment [7] and in [10] was over 100 µM in each case. Besides, the TGI in [1], in experiment [3], in experiment [9], in [4], in [5] and in experiment [6] was over 100 µM in each case. Besides, the TGI in experiment [7] and in [10] was over 100 µM throughout.

Consider `C[N+](C)(C)CC1CCCCC1O` (stereo unspecified), for which the TGI in experiment [1], in experiment [2], in experiment [3], in experiment [4], in experiment [5] and in [6] was over 100 µM each time. Moreover, the TGI in experiment [7], in experiment [8] and in experiment [10] was over 100 µM throughout.
